Results on 105 compounds are retold here after PubChem BioAssay AID1996.

Converted amounts (≈) assume the structure as drawn. A value given as a limit tells only on which side of the number the result lay.

The conditions of this data set: buffer; pH 7.4; 200.0 µM.
By kinetic solubility is commonly meant the concentration staying in solution when a stock, usually in DMSO, is diluted into the medium. Regarding `CCC(C)NC(=O)c1cc(-c2cccs2)nc2ccccc12` (stereo not given), the solubility (kinetic) was determined as 2.4 µg/mL (≈ 7.73 µM).
The compound `CCOc1ccc(CCNC(=O)c2cc(C)on2)cc1OCC` had a kinetic solubility above 47.8 µg/mL.
Under `CC(C)=C(NC(=O)c1ccccc1)C(N)=O` stands above 32.7 µg/mL; under `COc1cc(N=c2ssnc2Cl)c(OC)cc1Cl`, 15.6 µg/mL (≈ 48.3 µM).
Under `CN1C(=O)C2(OCCCO2)c2cc(Cl)ccc21` stands above 38.1 µg/mL; under `Cc1cc(OC(=O)N(C)C)nc(-c2ccc(C)c(Cl)c2)n1`, 22.5 µg/mL (≈ 73.6 µM).
Under `CC(=O)c1cccc(NC(=O)NCCc2c[nH]c3ccccc23)c1` stands 2.2 µg/mL (≈ 6.85 µM); under `CCCOc1ccc(-c2nc(N3CCN(C)CC3)c3ccccc3n2)cc1`, 14.5 µg/mL (≈ 40 µM).
In the case of `Cc1ccc(S(=O)(=O)N2CCOCC2)cc1NC(=O)COC(=O)c1ccc(Br)cc1`, the solubility (kinetic) was found to be 5.3 µg/mL (≈ 10.7 µM).
Compound `C=CCN(c1ccccc1OC)S(=O)(=O)c1cccc(C(=O)OCC(=O)N2CC(C)OC(C)C2)c1` (stereo not given) showed a solubility (kinetic) of 52.7 µg/mL (≈ 105 µM). This solubility kinetic lies about 9.9-fold higher than the previous one.
Take `Cc1ccc(NC(=O)c2cc(CC(C)C)nc3ccccc23)cc1`: the solubility (kinetic) worked out at 0.6 µg/mL (≈ 1.88 µM).
`O=S1(=O)CCN(Cc2ccccc2C(F)(F)F)CC1` came in with a solubility (kinetic) above 44 µg/mL.
For `Cn1c(=O)c(C(=O)c2ccccc2)c(O)c2ccccc21` the value was 38.8 µg/mL (≈ 139 µM); for `O=C(Nc1cccnc1)c1cc([N+](=O)[O-])ccc1Cl`, above 41.7 µg/mL.
For `COc1ccc(C(=O)CSc2nccn2C)cc1` the value was 35.1 µg/mL (≈ 134 µM); for `O=C(CCl)N1c2ccccc2SCC1c1ccccc1` (stereo not given), 2.7 µg/mL (≈ 8.89 µM); for `O=C(COC(=O)c1c(F)cccc1Cl)NC1CCCCC1`, above 47.1 µg/mL.
With `COC(=O)CC1C(=O)NC2CCCCC2N1C(=O)CCl` (stereo not given), the solubility (kinetic) was above 45.4 µg/mL.
In turn, `NC(=O)COC(=O)c1sc2cc(F)ccc2c1Cl` yielded a solubility (kinetic) of 6.3 µg/mL (≈ 21.9 µM).
In turn, `O=C(OCc1cnc(Cl)s1)c1cccs1` had a solubility (kinetic) of 26.5 µg/mL (≈ 102 µM). This solubility kinetic lies about 4.2-fold higher than the previous one.
Turning to `O=C(O)Cc1ccc(NCc2ccccc2Cl)cc1`, the solubility (kinetic) was 28 µg/mL (≈ 102 µM).
As to `CCSC1=NN2CCS(=O)(=O)N=C2S1`, the solubility (kinetic) is above 37.7 µg/mL.
Under `COc1ccc(NC(=O)COc2ccc3c(c2)CCC3)cc1S(N)(=O)=O` stands 15.9 µg/mL (≈ 42.2 µM); under `CC(NC(=O)c1cnc2ccccc2n1)c1ccccc1` (stereo not given), 33.7 µg/mL (≈ 122 µM); under `CCC1(C)SC(N)=NN1C(C)=O` (stereo not given), above 28.1 µg/mL.
The compound `CC(C)c1ccc(N2C=Nc3ccc(C(C)C)cc3C2)cc1` displayed a solubility (kinetic) of 2.8 µg/mL (≈ 9.58 µM).
For `CCCOc1ccccc1/C=C(\C#N)C(=O)Nc1cccc(C)n1` the value was 5.1 µg/mL (≈ 15.9 µM); for `CCCCCCc1c(O)nc(SCCN(C)C)[nH]c1=O`, 32.8 µg/mL (≈ 110 µM).
Under `COc1ccc(C(=O)c2sc(Nc3ccccc3)nc2N)cc1` stands 2.2 µg/mL (≈ 6.76 µM); under `CCOc1ccccc1/C=C(\C#N)C1=CCCC1`, above 35.9 µg/mL; under `CCOc1cc(C(=O)OC(C(=O)NC(=O)NC)c2ccccc2)ccc1OCC(=O)N1CCOCC1` (stereo not given), 11.4 µg/mL (≈ 22.8 µM).
For `O=C(Oc1ccccc1C(=O)N1CCOCC1)c1ccc(F)cc1` the value was 45.1 µg/mL (≈ 137 µM).
For the compound `CC(C)(C)N1CC(C(=O)O)CC1=O` (stereo not given), the kinetic solubility was above 27.8 µg/mL.
For `COc1ccccc1OCCCOc1cccc(/C=C2\SC(=O)NC2=O)c1` the value was below 0.8 µg/mL; for `CCN(C(=O)CN1C(=O)CN(C)C1=O)c1cccc2ccccc12`, above 48.8 µg/mL.
For `COc1ccc(CCC(=O)NC(C)C2CCCO2)cc1` (stereo not given) the value was above 41.6 µg/mL; for `O=C(Nc1ccc2nccnc2c1)c1ccco1`, above 35.9 µg/mL.
`O=C(CN1CCN(Cc2ccccc2F)C1=O)NC1CCCC1` gave a solubility (kinetic) above 47.9 µg/mL.
In turn, `CC(C)(C)NC(=O)C(OC(=O)c1cccs1)c1ccccc1` (stereo not given) had a kinetic solubility of 3.3 µg/mL (≈ 10.4 µM).
For `COc1ccc(C)cc1NC(=O)NCCCCc1ccccc1` the value was 0.4 µg/mL (≈ 1.28 µM).
For `CCn1c(/N=C/c2ccccc2O)nc2ccccc21`, the kinetic solubility is 36.9 µg/mL (≈ 139 µM).
Under `Cc1ccc(C)c(N2CC(C(=O)Nc3cc(C)on3)CC2=O)c1` (stereo not given) stands 40.3 µg/mL (≈ 129 µM); under `Cc1c([N+](=O)[O-])c2ccc(O)cc2n1-c1ccccc1`, 1 µg/mL (≈ 3.73 µM); under `CC1(C)CC(=O)C2=C(C1)OC(N)=C(C#N)C2c1ccoc1` (stereo not given), above 42.6 µg/mL.
`Cc1ccc(C(=O)N2CCN(c3ccccn3)CC2)cc1` had a solubility (kinetic) above 42.2 µg/mL.
The compound `Cc1cc(C)n2c(SCC(=O)Nc3cccc(S(N)(=O)=O)c3)nnc2n1` yielded a solubility (kinetic) above 58.9 µg/mL.
In turn, `O=C(c1cc(-c2ccc(O)cc2)on1)N1CCOCC1` gave a kinetic solubility above 41.1 µg/mL.
With `COc1ccc(CN(C)C(=O)c2[nH]c(C)c(C(C)=O)c2C)cc1F`, the solubility (kinetic) is above 49.9 µg/mL.
Compound `COc1cccc(NC(=O)c2cc3ccccc3cc2OC)c1` displayed a kinetic solubility of 2.8 µg/mL (≈ 9.11 µM).
`CCOc1nc2ccccc2nc1NS(=O)(=O)c1ccc(Cl)cc1`: the kinetic solubility was above 54.6 µg/mL.
In the case of `O=C(COC(=O)[C@@H]1CCCN1C(=O)c1cccs1)Nc1cccc([N+](=O)[O-])c1`, the kinetic solubility came to 2.8 µg/mL (≈ 6.94 µM).
As to `Cc1ccc(C(=O)OCC(=O)Nc2ccc(F)c(Cl)c2)o1`, the kinetic solubility came to 2.9 µg/mL (≈ 9.3 µM).
As to `O=C(NC(=S)NC1CCS(=O)(=O)C1)c1ccccc1` (stereo not given), the kinetic solubility is above 44.8 µg/mL.
Under `Cc1ccccc1OCCNC(=O)c1ccco1` stands above 36.8 µg/mL.
On to `O=C(CC(c1ccccc1)c1cc(Cl)ccc1O)N1CCCC1` (stereo not given), for which the solubility (kinetic) was above 49.5 µg/mL.
Compound `Cc1cccc(N(Cc2ccccc2)C(=O)c2ccccc2F)c1` displayed a kinetic solubility of 11.5 µg/mL (≈ 36 µM).
With `O=C(/C=C/c1ccc(Cl)cc1)NCCCn1ccnc1`, the kinetic solubility is above 43.5 µg/mL.
For `O=C(CO/N=C/c1ccc(OC(F)F)cc1)NC1CCCC1` the value was above 46.8 µg/mL; for `O=C(c1c(F)cccc1F)N1CCN(CCOc2ccccc2)CC1`, above 52 µg/mL; for `C=CCNC(=O)C12CCC(C)(C(=O)[C@H]1Br)C2(C)C` (stereo not given in full), above 47.1 µg/mL.
Under `O=C(COc1ccc2cc(Br)ccc2c1)N1CCOCC1` stands above 52.5 µg/mL.
`O=C(c1cccc(NS(=O)(=O)c2ccccc2)c1)N1CCCC1`: the kinetic solubility worked out at 43.9 µg/mL (≈ 133 µM).
As for `Cc1nc([N+](=O)[O-])cn1CC(=O)c1ccc(Cl)cc1`, the solubility (kinetic) was determined as 3.7 µg/mL (≈ 13.2 µM).
Under `COc1ccc(C(=O)NC2CCCc3ccccc32)cc1[N+](=O)[O-]` (stereo not given) stands 2.4 µg/mL (≈ 7.35 µM).
On to `Cc1ccc(OCC(=O)NCCCNC(=O)c2ccco2)cc1`, for which the kinetic solubility was above 47.5 µg/mL.
For `CSc1ncccc1C(=O)Nc1nc2ccc(F)cc2s1` the value was 1.8 µg/mL (≈ 5.64 µM); for `O=C(NCc1cccs1)C1CC1`, 26.5 µg/mL (≈ 146 µM); for `O=C(c1ccccc1)c1cc2c(cc1[N+](=O)[O-])OCCO2`, 7.3 µg/mL (≈ 25.6 µM).
For `COc1cccc(OCCn2cc(C(C)=O)c3ccccc32)c1` the value was 10.9 µg/mL (≈ 35.2 µM).
`CC(Sc1nc2sccc2c(=O)n1-c1ccccc1)C(N)=O` (stereo not given): the solubility (kinetic) was 43.5 µg/mL (≈ 131 µM).
Under `CCC(C)Nc1nc(C)nc2c1oc1ccccc12.Cl` (stereo not given) stands 41.3 µg/mL; under `CC(C)C(=O)Nc1nc(-c2ccc([N+](=O)[O-])cc2)cs1`, 2.6 µg/mL (≈ 8.92 µM); under `COc1ccc(C(=O)OC2CC3CCC(C2)[N+]3(C)[O-])cc1OC` (stereo not given), 47.8 µg/mL (≈ 149 µM).
With `FC(F)(F)c1ccccc1-n1ccnc1`, the kinetic solubility worked out at 30.2 µg/mL (≈ 142 µM).
Under `CC(NC(=O)CCCc1c[nH]c2ccccc12)c1ccc(F)cc1` (stereo not given) stands 41.5 µg/mL (≈ 128 µM); under `CCC1(CC)NC(=O)N(CC(=O)Nc2cccc3ccccc23)C1=O`, above 50.9 µg/mL.
With `CCSc1nsc(NC(=O)Nc2cccc(C(C)=O)c2)n1`, the solubility (kinetic) stood at 1.6 µg/mL (≈ 4.96 µM).
For `Cc1cc(NC(=O)c2c(-c3c(F)cccc3Cl)noc2C)no1` the value was above 50.4 µg/mL.
Compound `CC1CCN(S(=O)(=O)c2c[nH]c(=O)[nH]c2=O)CC1` displayed a solubility (kinetic) above 41 µg/mL.
For `Cc1ccccc1-c1nc(S(=O)(=O)c2ccccc2)c(N2CCCC2)o1` the value was 10.1 µg/mL (≈ 27.4 µM).
Under `Cn1c(=O)c2cc3c(nc2n(C)c1=O)CC(c1ccccc1)CC3=O` (stereo not given) stands 0.5 µg/mL (≈ 1.49 µM).
For `Cc1ccccc1OCCC(=O)OCC(=O)NC1CC1` the value was above 41.6 µg/mL; for `CC(=O)Nc1ccc(N=Cc2c(O)ccc3ccccc23)cc1`, 7.6 µg/mL (≈ 25 µM).
The compound `CC1CCC(C(C)C)C(=O)/C1=C/c1ccc(N)cc1` (stereo not given) had a kinetic solubility of 3.3 µg/mL (≈ 12.8 µM). This solubility kinetic lies about 2.3-fold lower than the previous one.
For `Cc1cccc2c3nc4ccccc4nc3n(C)c12` the value was below 0.2 µg/mL; for `Cc1cccc(NC(=S)N(CCc2ccncc2)C(C)C)c1C`, 32.5 µg/mL (≈ 99.2 µM).
The compound `Clc1ccc2c(NCc3ccccc3)ccnc2c1` registered a solubility (kinetic) of 19 µg/mL (≈ 70.7 µM). This solubility kinetic lies about 1.7-fold lower than the previous one.
For `COc1cc2c(cc1OC)CN(C(=O)CSc1ccccc1C)CC2` the value was above 53.6 µg/mL; for `CC(NC(=O)COc1ccccc1Cl)c1ccccc1` (stereo not given), above 43.5 µg/mL; for `O=C(CCOc1ccc(F)cc1)Nc1nccs1`, 5.6 µg/mL (≈ 21 µM).
Compound `Cc1cc(SCC(=O)c2ccccc2)nc(=O)[nH]1` returned a kinetic solubility of 16.7 µg/mL (≈ 64.2 µM).
Regarding `Cc1ccc(C(=O)NCCCNC(=O)c2ccccc2F)cn1`, the kinetic solubility was 44.1 µg/mL (≈ 140 µM).
For `CC(C)Oc1ccc(C(=O)Nc2cccc3cccnc23)cc1` the value was 1.1 µg/mL (≈ 3.59 µM); for `COc1cc(C(=O)Cc2nc3ccccc3n2C)cc(OC)c1OC`, above 51.1 µg/mL; for `Fc1ccccc1NC(=S)Nc1ccc(CN2CCOCC2)cc1`, 49.4 µg/mL (≈ 143 µM).
Under `CNC(=O)CSc1nc(SC)ns1` stands above 35.3 µg/mL; under `Cl.N=C(c1ccc([N+](=O)[O-])cc1)N1CCCCCC1`, above 42.6 µg/mL; under `Cc1cc(C)c2c(N)c(C(=O)Nc3cccc(C)c3C)sc2n1`, 1.2 µg/mL (≈ 3.69 µM).
Under `CCc1noc(C)c1C(=O)Nc1nc2ccc(F)cc2s1` stands 27.2 µg/mL (≈ 89.1 µM); under `Cc1nn(-c2ccc(C(=O)O)cc2)c2c1C(=O)CC(C)(C)C2`, above 44.8 µg/mL; under `COc1cccc(/C=C2\SC(=S)N(c3cccnc3)C2=O)c1OC`, below 0.4 µg/mL.
In the case of `Cc1nc2ccccc2n1CC(O)c1ccccc1` (stereo not given), the solubility (kinetic) came out at 33.9 µg/mL (≈ 134 µM).
Turning to `COC(=O)c1ccc(C)c(NS(=O)(=O)c2cn(C)nc2C)c1`, the kinetic solubility is above 48.5 µg/mL.
For `COC(=O)c1ccncc1N` the value was above 22.8 µg/mL.
Under `CCOC(=O)C1CCN(CC(=O)N2CCc3ccccc32)CC1` stands above 47.5 µg/mL.
